Results: patent US8697739B2, “Bicyclic acetyl-CoA carboxylase inhibitors and uses thereof” (Novartis AG, priority 2010, dated 2014)

Columns and labels:
in vitro = format: cell-based; conditions: human
Protocol: (§1) The effect of compounds on HCV infection was determined in vitro using cell cultured (HCVcc) genotype 2a (JFH-1 strain) virus. A renilla luciferase reporter gene was inserted in the viral genome, the expression of which was under the control of HCV 5′UTR (JFH-1^rLuc). Thus, the inhibition of HCV infection or replication can be indirectly measured by the reduction of luciferase activity in the cells. A specifically adapted hepatoma cell line, Huh 7.5, which allowed higher infectivity of HCV in vitro, was cultured in Dulbecco's modified Eagle's medium (DMEM) supplemented with 2 mM L-glutamine, 0.1 mM non-essential amino acids and 10% heat-inactivated fetal bovine serum. The cells were infected with JFH-1^rLuc virus at an MOI=0.01 and were treated at the same time with serially diluted compounds. After 72 hours, luciferase activities in compound-treated cells were measured using the Renilla Luciferase Assay System (Promega) and were compared to those in untreated control cells. Concentration-dependent inhibition curves were generated, from which EC50 values, the concentrations of compounds at which luciferase activities were reduced by 50% relative to untreated control, were calculated. In parallel, cytotoxicity of compounds was determine by measuring the viability of compound-treated cells using CellTiter 96® AQueous One Solution Cell Proliferation Assay (Promega). CC50 represented the concentration of the compound at which cell viability was reduced by 50% compared to untreated control.

[1] = target: T1, human acetyl-CoA carboxylase 2 (ACC2) (Homo sapiens, UniProt O00763); test: Acetyl-CoA carboxylase enzyme assay (malonyl-CoA formation by LC/MS/MS); format: biochemical; conditions: recombinant human ACC2 (aa 144-2458); read-out: IC50 ACC2
T1 construct: The cDNA encoding amino acids 144 to 2458 of human acetyl-CoA carboxylase 2; made in house; host or cells: Sf9 insect cells (baculovirus, pFastBac1)
How it was run: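 Malonyl-CoA formation was read by LC/MS/MS MRM against a [13C3]-malonyl-CoA internal standard, after acetic acid quench. The enzyme was baculovirus/Sf9-expressed human ACC2 residues 144–2458, given 15 minutes room-temperature compound preincubation in HEPES pH 7.5 buffer with MgCl2, citrate and DTT. Substrate solution held 50 μM acetyl-CoA, 120 μM ATP and 2 mM KHCO3.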

[2] = system: HCVcc genotype 2a (JFH-1 strain) virus; test: HCV assay: JFH-1 rLuc infection of Huh 7.5 cells, renilla luciferase readout; format: cell-based; conditions: Hepatitis C virus, Huh7.5; JFH-1 rLuc virus, MOI=0.01, Huh 7.5 cells, 72 hours, luciferase activity reduced by 50%
Protocol: as §1

T1 sequence (O00763 144-2458): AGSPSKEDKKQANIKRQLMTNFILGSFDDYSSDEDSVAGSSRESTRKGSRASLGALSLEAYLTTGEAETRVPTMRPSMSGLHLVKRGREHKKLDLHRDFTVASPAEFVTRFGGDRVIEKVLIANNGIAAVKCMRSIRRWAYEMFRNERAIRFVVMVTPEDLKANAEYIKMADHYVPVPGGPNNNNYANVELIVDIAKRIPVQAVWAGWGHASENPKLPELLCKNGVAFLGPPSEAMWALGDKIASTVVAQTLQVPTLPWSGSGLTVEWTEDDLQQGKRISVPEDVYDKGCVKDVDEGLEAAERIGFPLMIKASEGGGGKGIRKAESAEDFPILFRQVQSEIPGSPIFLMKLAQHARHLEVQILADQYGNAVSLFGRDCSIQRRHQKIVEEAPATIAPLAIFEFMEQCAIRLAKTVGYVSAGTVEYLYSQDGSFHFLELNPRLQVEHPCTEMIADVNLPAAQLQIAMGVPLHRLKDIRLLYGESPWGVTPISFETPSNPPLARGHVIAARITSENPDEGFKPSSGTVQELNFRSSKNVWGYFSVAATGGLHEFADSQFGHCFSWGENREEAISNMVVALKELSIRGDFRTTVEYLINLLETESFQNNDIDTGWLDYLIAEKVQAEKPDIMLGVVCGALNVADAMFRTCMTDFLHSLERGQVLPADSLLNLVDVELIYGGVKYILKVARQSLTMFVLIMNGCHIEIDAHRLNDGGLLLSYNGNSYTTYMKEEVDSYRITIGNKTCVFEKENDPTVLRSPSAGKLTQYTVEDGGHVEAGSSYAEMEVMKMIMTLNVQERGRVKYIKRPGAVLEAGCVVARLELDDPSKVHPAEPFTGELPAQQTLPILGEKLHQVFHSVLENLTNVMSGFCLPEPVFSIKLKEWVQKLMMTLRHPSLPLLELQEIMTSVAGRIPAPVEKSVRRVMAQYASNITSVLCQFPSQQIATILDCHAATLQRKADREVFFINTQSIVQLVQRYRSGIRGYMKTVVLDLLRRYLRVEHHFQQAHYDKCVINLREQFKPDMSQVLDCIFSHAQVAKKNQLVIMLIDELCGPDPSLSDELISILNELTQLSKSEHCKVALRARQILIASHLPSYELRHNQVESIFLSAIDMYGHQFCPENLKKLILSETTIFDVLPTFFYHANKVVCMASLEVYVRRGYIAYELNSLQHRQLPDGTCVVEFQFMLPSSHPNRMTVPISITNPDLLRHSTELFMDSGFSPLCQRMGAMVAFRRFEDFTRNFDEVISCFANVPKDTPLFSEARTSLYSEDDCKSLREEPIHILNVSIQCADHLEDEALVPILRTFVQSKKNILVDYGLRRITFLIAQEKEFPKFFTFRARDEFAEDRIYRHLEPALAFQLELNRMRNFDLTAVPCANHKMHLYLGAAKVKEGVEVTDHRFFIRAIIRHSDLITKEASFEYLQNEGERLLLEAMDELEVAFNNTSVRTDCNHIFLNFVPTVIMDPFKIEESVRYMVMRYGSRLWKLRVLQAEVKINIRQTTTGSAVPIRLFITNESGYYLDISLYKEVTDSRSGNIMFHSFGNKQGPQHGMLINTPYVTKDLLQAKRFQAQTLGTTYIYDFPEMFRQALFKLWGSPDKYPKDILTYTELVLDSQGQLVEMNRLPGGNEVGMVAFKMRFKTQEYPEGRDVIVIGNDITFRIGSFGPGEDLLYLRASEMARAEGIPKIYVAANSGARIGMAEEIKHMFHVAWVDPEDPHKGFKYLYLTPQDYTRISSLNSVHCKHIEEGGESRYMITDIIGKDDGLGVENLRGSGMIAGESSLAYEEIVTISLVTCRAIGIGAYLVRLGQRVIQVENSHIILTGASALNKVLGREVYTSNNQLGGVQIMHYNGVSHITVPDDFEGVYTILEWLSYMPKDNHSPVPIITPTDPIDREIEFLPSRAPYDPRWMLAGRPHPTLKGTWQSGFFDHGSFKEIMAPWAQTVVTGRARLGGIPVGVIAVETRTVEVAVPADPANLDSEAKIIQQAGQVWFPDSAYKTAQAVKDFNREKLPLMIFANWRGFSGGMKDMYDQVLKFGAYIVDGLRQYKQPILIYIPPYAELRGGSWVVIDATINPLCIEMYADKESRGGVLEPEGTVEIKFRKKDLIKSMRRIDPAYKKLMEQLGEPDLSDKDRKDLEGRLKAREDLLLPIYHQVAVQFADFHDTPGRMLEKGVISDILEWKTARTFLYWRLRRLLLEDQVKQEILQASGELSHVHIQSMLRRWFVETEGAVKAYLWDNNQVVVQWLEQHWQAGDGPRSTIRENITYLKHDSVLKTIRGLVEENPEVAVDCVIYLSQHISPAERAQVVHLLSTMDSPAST

Row | Molecule | CC50 at 72 h (in vitro) [nM] | IC50 [1] [nM] | EC50 [2] [nM]
1 | CC(C)[C@H]1COCCN1C(=O)[C@H]1CC[C@H](NS(=O)(=O)c2ccc3c(Cl)c(-c4ccc(CCC(=O)O)cc4)n(C)c3c2)CC1 [Example 25, 3-(4-(3-chloro-6-(N-((1S,4r)-4-((S)-3-isopropylmorpholine-4-carbonyl)cyclohexyl)sulfamoyl)-1-methyl-H-indol-2-yl)phenyl)propanoic acid] | > 33000 | < 10 | 680
2 | Cn1c(-c2ccc(CCC(=O)O)cc2)c(Cl)c2ccc(S(=O)(=O)N[C@H]3CC[C@H](C(=O)N4CCOC[C@@H]4C4CC4)CC3)cc21 [Example 28, 3-(4-(3-chloro-6-(N-((1S,4r)-4-((S)-3-cyclopropylmorpholine-4-carbonyl)cyclohexyl)sulfamoyl)-1-methyl-1H-indol-2-yl)phenyl)propanoic acid] | > 33000 | < 10 | 510
3 | CC(C)[C@H]1COCCN1C(=O)[C@H]1CC[C@H](NS(=O)(=O)c2ccc3cc(-c4ccc(CCC(=O)O)cc4)n(C)c3c2)CC1 [Example 29, 3-(4-(6-(N-((1S,4r)-4-((S)-3-isopropylmorpholine-4-carbonyl)cyclohexyl)sulfamoyl)-1-methyl-1H-indol-2-yl)phenyl)propanoic acid] | > 33000 | < 10 | 2420
4 | COCCc1ccc(-c2cc3ccc(S(=O)(=O)N[C@H]4CC[C@H](C(=O)N5CCOC[C@@H]5C)CC4)cc3[nH]2)cc1 [Example 30, 2-(4-(2-methoxyethyl)phenyl)-N-((1S,4r)-4-((S)-3-methylmorpholine-4-carbonyl)cyclohexyl)-1H-indole-6-sulfonamide] | > 33000 | 10 | 710
5 | COCCc1ccc(-c2[nH]c3cc(S(=O)(=O)N[C@H]4CC[C@H](C(=O)N5CCOC[C@@H]5C)CC4)ccc3c2Cl)cc1 [Example 31, 3-chloro-2-(4-(2-methoxyethyl)phenyl)-N-((1S,4r)-4-((S)-3-methylmorpholine-4-carbonyl)cyclohexyl)-1H-indole-6-sulfonamide] | 24000 | < 10 | 140
6 | C[C@@H](NC(=O)[C@H]1CC[C@H](NS(=O)(=O)c2cnc3c(c2)N(C(=O)OCCOCc2ccccc2)CCN3)CC1)c1ccc(F)cc1 [Example 208, 2-(benzyloxy)ethyl 7-(N-((1R,4r)-4-((R)-1-(4-fluorophenyl)ethylcarbamoyl)cyclohexyl)sulfamoyl)-3,4-dihydropyrido[3,2-b]pyrazine-1(2H)-carboxylate] | > 16700 | 595 | 4740
7 | CCOc1ccc2cc(S(=O)(=O)N[C@H]3CC[C@H](C(=O)N[C@H](COC(=O)[C@@H](NC)C(C)C)c4ccccc4)CC3)ccc2n1 [Example 272, (S)-((S)-2-((1r,4S)-4-(2-ethoxyquinoline-6-sulfonamido)cyclohexanecarboxamido)-2-phenylethyl) 3-methyl-2-(methylamino)butanoate] | > 16700 | 175 | 14100
8 | Cn1c(-c2ccccc2)cc2ccc(S(=O)(=O)N[C@H]3CC[C@H](C(=O)N4CCN(c5ncccn5)CC4)CC3)cc21 [Example 431, 1-methyl-2-phenyl-N-((1r,4r)-4-(4-(pyrimidin-2-yl)piperazine-1-carbonyl)cyclohexyl)-1H-indole-6-sulfonamide] | > 33000 | 130 | 2230
9 | Cn1c(C2CC2)cc2ccc(S(=O)(=O)N[C@H]3CC[C@H](C(=O)N4CCOC[C@@H]4C4CC4)CC3)cc21 [Example 458, 2-cyclopropyl-N-((1S,4r)-4-((S)-3-cyclopropylmorpholine-4-carbonyl)cyclohexyl)-1-methyl-1H-indole-6-sulfonamide] | > 33000 | 35 | 240
10 | Cn1c(C2CC2)cc2ccc(S(=O)(=O)N[C@H]3CC[C@H](C(=O)NC(C4CC4)C4CC4)CC3)cc21 [Example 459, (1r,4r)-4-(2-cyclopropyl-1-methyl-1H-indole-6-sulfonamido)-N-(dicyclopropylmethyl)cyclohexanecarboxamide] | 26000 | 630 | 210
11 | COC(=O)CCc1ccc(-c2cc3ccc(S(=O)(=O)N[C@H]4CC[C@H](C(=O)N5CCOC[C@@H]5C5CC5)CC4)cc3n2C)cc1 [Example 473, methyl 3-(4-(6-(N-((1S,4r)-4-((S)-3-cyclopropylmorpholine-4-carbonyl)cyclohexyl)sulfamoyl)-1-methyl-1H-indol-2-yl)phenyl)propanoate] | > 33000 | < 10 | 200
12 | O=C([C@H]1CC[C@H](NS(=O)(=O)c2ccc3c(Cl)c(-c4ccccc4)[nH]c3c2)CC1)N1CCOC[C@@H]1C1CC1 [Example 474, 3-chloro-N-((1S,4r)-4-((S)-3-cyclopropylmorpholine-4-carbonyl)cyclohexyl)-2-phenyl-1H-indole-6-sulfonamide] | > 67000 | < 10 | 29
13 | C[C@@H]1CN(C(=O)[C@H]2CC[C@H](NS(=O)(=O)c3ccc4c(Cl)c(-c5ccccc5)[nH]c4c3)CC2)C[C@H](C)O1 [Example 477, 3-chloro-N-((1R,4r)-4-((2S,6R)-2,6-dimethylmorpholine-4-carbonyl)cyclohexyl)-2-phenyl-1H-indole-6-sulfonamide] | 12000 | < 10 | 40
14 | Cn1c(-c2ccccc2)cc2ccc(S(=O)(=O)N[C@H]3CC[C@H](C(=O)N4CCOC[C@@H]4C4CC4)CC3)cc21 [Example 479, N-((1S,4r)-4-((S)-3-cyclopropylmorpholine-4-carbonyl)cyclohexyl)-1-methyl-2-phenyl-1H-indole-6-sulfonamide] | > 33000 | 10 | 1270
15 | Cn1c(-c2ccccc2)cc2ccc(S(=O)(=O)N[C@H]3CC[C@H](C(=O)N4CC5(CN(C(=O)OC(C)(C)C)C5)C4)CC3)cc21 [Example 483, tert-butyl 6-((1r,4r)-4-(1-methyl-2-phenyl-1H-indole-6-sulfonamido)cyclohexanecarbonyl)-2,6-diazaspiro[3.3]heptane-2-carboxylate] | 16000 | 75 | 40
16 | CC(NC(=O)[C@H]1CC[C@H](NS(=O)(=O)c2ccc3ccccc3c2)CC1)c1cccnc1 (stereo partly shown) [Example 680, (1r,4r)-4-(naphthalene-2-sulfonamido)-N-(1-(pyridin-3-yl)ethyl)cyclohexanecarboxamide] |  | 240 | 
17 | CC(NC(=O)[C@H]1CC[C@H](NS(=O)(=O)c2ccc3cc(Cl)ccc3c2)CC1)c1cccnc1 (stereo partly shown) [Example 681, (1r,4r)-4-(6-chloronaphthalene-2-sulfonamido)-N-(1-(pyridin-3-yl)ethyl)cyclohexanecarboxamide] |  | 142 | 
18 | C[C@@H](NC(=O)[C@H]1CC[C@H](NS(=O)(=O)c2ccc3ccccc3c2)CC1)c1cccnc1 [Example 682, (1r,4R)-4-(naphthalene-2-sulfonamido)-N-((R)-1-(pyridin-3-yl)ethyl)cyclohexanecarboxamide] |  | 144 | 
19 | C[C@H](NC(=O)[C@H]1CC[C@H](NS(=O)(=O)c2ccc3ccccc3c2)CC1)c1cccnc1 [Example 683, (1r,4S)-4-(naphthalene-2-sulfonamido)-N-((S)-1-(pyridin-3-yl)ethyl)cyclohexanecarboxamide] |  | > 35000 | 
20 | C[C@@H](NC(=O)[C@H]1CC[C@H](NS(=O)(=O)c2ccc3cc(Cl)ccc3c2)CC1)c1cccnc1 [Example 684, (1r,4R)-4-(6-chloronaphthalene-2-sulfonamido)-N-((R)-1-(pyridin-3-yl)ethyl)cyclohexanecarboxamide] |  | 180 | 
21 | O=S(=O)(N[C@H]1CC[C@H](c2nnc(C3CCCCC3)o2)CC1)c1ccc2c(c1)CNCC2 [Example 685, N-((1r,4r)-4-(5-cyclohexyl-1,3,4-oxadiazol-2-yl)cyclohexyl)-1,2,3,4-tetrahydroisoquinoline-7-sulfonamide] |  | > 35000 | 
22 | N-(4-(5-isopropyl-1,3,4-oxadiazol-2-yl)phenyl)-2-(4-morpholinophenyl)-1H-benzo[d]imidazole-5-sulfonamide [Example 591] |  | 1130 | 
